These results are taken from publication PMC8197367, “Comparative Antimicrobial Activity of Hp404 Peptide and Its Analogs against Acinetobacter baumannii” (International Journal of Molecular Sciences, 2021).

In data set [1] the test system is A. baumannii 907233. Briefly: microbe, parasite or virus in culture. The conditions noted are these: A. baumannii 907233 isolated from patient; broth microdilution, 37 °C, 18 h; three independent experiments. The text has this: (§1) Staphylococcus aureus ATCC 25923, S. aureus ATCC 29213, P. aeruginosa ATCC 27853, Escherichia coli ATCC 25922 and Salmonella typhimurium ATCC 14028 strains were obtained from the American Type Culture Collection (ATCC, Manassas, VA, USA). Listeria monocytogenes KCTC 3710, Bacillus cereus KCTC 1012, K. pneumoniae KCTC 2208 and A. baumannii KCTC 2508 were obtained from the Korean Collection for Type Cultures (KRIBB, Daejeon, South Korea). Clinical isolates of A. baumannii strains were collected from Eulji University Hospital (Seoul, South Korea).
(§2) Hp1404 and its analog peptides activity against both gram-positive and gram-negative bacterial strains were tested using the broth microdilution method. Briefly, S. aureus (ATCC 25923, ATCC 29213) and B. cereus KCTC 1012 were cultured overnight at 37 °C in tryptic soy broth (TSB). P. aeruginosa ATCC 27853, K. pneumoniae KCTC 2208, A. baumannii KCTC 2508 and S. typhimurium ATCC 14028 were cultured overnight at 37 °C in nutrient broth (NB). E. coli ATCC 25922 was cultured overnight at 37 °C in luria bertani (LB). L. monocytogenes KCTC 3710 was cultured overnight at 37 °C in brain heart infusion (BHI). The cultures were diluted with fresh medium at a density of 2 × 10^5 CFU/mL. Peptides were serially diluted in sodium phosphate buffer (pH 7.2) to a final concentration of 25 μM. In a 96-well plate, 50-μL bacterial aliquots were mixed with 50 μL peptide solution. After incubation at 37 °C for 18 h, the MIC was determined using a plate reader at 600 nm. The experiment was performed in triplicate.
In general terms: Broth dilution looks for growth in wells or tubes with falling amounts of substance.

Data set [2] has as its system A. baumannii 719705. Briefly: microbe, parasite or virus in culture. The conditions noted are these: A. baumannii 719705 isolated from patient; broth microdilution, 37 °C, 18 h; three independent experiments.
Excerpt: as §1, §2

For data set [3], the system named is A. baumannii #3. Nature of the data set: microbe, parasite or virus in culture. The conditions noted are these: A. baumannii #3 isolated from patient; broth microdilution, 37 °C, 18 h; three independent experiments.
Excerpt: as §1, §2

Data set [4] concerns A. baumannii #2. Nature of the data set: microbe, parasite or virus in culture. The conditions noted are these: A. baumannii #2 isolated from patient; broth microdilution, 37 °C, 18 h; three independent experiments.
Excerpt: as §1, §2

Data set [5] concerns A. baumannii 409081. Nature of the data set: microbe, parasite or virus in culture. The following applies: A. baumannii 409081 isolated from patient; broth microdilution, 37 °C, 18 h; three independent experiments.
Excerpt: as §1, §2

Data set [6] has as its system A. baumannii #4. Briefly: microbe, parasite or virus in culture. The conditions noted are these: A. baumannii #4 isolated from patient; broth microdilution, 37 °C, 18 h; three independent experiments.
Excerpt: as §1, §2

The subject of data set [7] is A. baumannii KCTC 2508. Nature of the data set: MIC, broth microdilution. In kind it is cell-based, Acinetobacter baumannii. The following applies: two-fold broth microdilution, NB, 2 × 10^5 CFU/mL, 37 °C, 18 h, read at 600 nm, no added salt, three independent experiments. On the procedure:
(§3) The experiment was performed in triplicate.

In data set [8] the test system is S. aureus ATCC 29213. Nature of the data set: MIC, broth microdilution. In kind it is cell-based, Staphylococcus aureus. The following applies: two-fold broth microdilution, TSB, 2 × 10^5 CFU/mL, 37 °C, 18 h, read at 600 nm, three independent experiments. Here is the method: as §3
Data set [9] relates to S. aureus ATCC 25923. Nature of the data set: MIC, broth microdilution. The following applies: two-fold broth microdilution, TSB, 2 × 10^5 CFU/mL, 37 °C, 18 h, read at 600 nm, three independent experiments. In kind it is cell-based, Staphylococcus aureus. Here is the method: as §3
Data set [10] has as its system L. monocytogenes KCTC 3710. Nature of the data set: MIC, broth microdilution. Format: cell-based, Listeria monocytogenes. The following applies: two-fold broth microdilution, BHI, 2 × 10^5 CFU/mL, 37 °C, 18 h, read at 600 nm, three independent experiments. Here is the method:
as §3

The subject of data set [11] is HaCaT cells. The following applies: 50 μM peptide, 24 h, MTT assay. Here is the method: The cytotoxicity of the peptides against mammalian cells was calculated using the MTT assay. Human keratinocyte HaCaT cells were incubated in Dulbecco’s modified Eagle’s medium (DMEM) supplemented with 10% fetal bovine serum and 1% penicillin at 37 °C with 5% CO2. HaCaT cells were added at 2 × 10^5 cells/mL to DMEM supplemented with 10% fetal bovine serum and placed in 96-well plates. The plates were incubated overnight at 37 °C in a CO2 incubator. Peptides were serially diluted two-fold in DMEM, added to the cell cultures and incubated for 24 h at 37 °C. MTT solution (5 mg/mL) was added to each well and incubated for 1 h at 37 °C. The media was discarded, and the formazan crystals were dissolved in 100 μL dimethyl sulfoxide. The absorbance was measured using a Versa-Max microplate ELISA reader (Molecular Devices, Sunnyvale, CA, USA) at 570 and 650 nm. As a […], 0.1% Triton X-100 was used.
For orientation: Formazan colour is commonly taken as a measure of viable cells.

In data set [12] the test system is E. coli ATCC 25922. Briefly: MIC, broth microdilution. The following applies: two-fold broth microdilution, LB, 2 × 10^5 CFU/mL, 37 °C, 18 h, read at 600 nm, three independent experiments. In kind it is cell-based, Escherichia coli. Here is the method:
as §3

In data set [13] the test system is P. aeruginosa ATCC 27853. Briefly: MIC, broth microdilution. Format: cell-based. The conditions noted are these: two-fold broth microdilution, NB, 2 × 10^5 CFU/mL, 37 °C, 18 h, read at 600 nm, three independent experiments. Here is the method: as §3
The test system of data set [14] is K. pneumoniae KCTC 2208. Nature of the data set: MIC, broth microdilution. In kind it is cell-based. The following applies: two-fold broth microdilution, NB, 2 × 10^5 CFU/mL, 37 °C, 18 h, read at 600 nm, three independent experiments. On the procedure: as §3
Data set [15] concerns mouse red blood cells. Briefly: Hemolytic assay. The following applies: 50 μM peptide (highest tested concentration); 8% mouse red blood cells in PBS, 1 h, 37 °C, absorbance 414 nm, vs 0.1% Triton X-100. In kind it is cell-based. On the procedure:
The hemolytic activity of the peptides against mouse erythrocytes was determined using red blood cells. Fresh mouse red blood cells were washed three times and resuspended in PBS to attain an 8% dilution. Peptides were serially diluted to a final concentration of 50 μM. Next, 100 µL peptide solution was added to 100 μL of mouse red blood cells, wrapped with aluminum foil and incubated for 1 h at 37 °C. The mixture was then centrifuged at 1500× g for 10 min. The supernatant was transferred into a new 96-well plate, and the absorbance of the supernatant was measured at 414 nm. As positive and negative controls, […] in mouse red blood cells were used. Hemolysis was evaluated according to the following equation:
Hemolysis (%) = [(Abs414 nm in the peptide solution − Abs414 nm in PBS)/(Abs414 nm in 0.1% Triton X-100 − Abs414 nm in PBS)] × 100.

Data set [16] has as its system S. typhimurium ATCC 14028. Briefly: MIC, broth microdilution. In kind it is cell-based, Salmonella typhimurium. The conditions noted are these: two-fold broth microdilution, NB, 2 × 10^5 CFU/mL, 37 °C, 18 h, read at 600 nm, three independent experiments. On the procedure: as §3
The subject of data set [17] is A. baumannii KCTC 2508. The conditions noted are these: NB supplemented with 150 mM NaCl, triplicate. On the procedure:
as §2
To determine whether antibacterial activity was affected by the presence of salts, experiments were conducted as previously reported. We determined the MICs of NB supplemented with 150 mM NaCl. MIC assays were performed as described above. The assay was performed in triplicate.

The subject of data set [18] is B. cereus KCTC 1012. Briefly: MIC, broth microdilution. The following applies: two-fold broth microdilution, TSB, 2 × 10^5 CFU/mL, 37 °C, 18 h, read at 600 nm, three independent experiments. In kind it is cell-based, Bacillus cereus. Here is the method:
as §3

Where no end group is shown, it is not given here.

In the case of “GILGKLWEGVKSIF-NH2 [Hp1404, reference compound]”, the MIC in [1], in data set [2], in data set [3], in data set [4], in data set [5] and in [6] was 3.13 µM in each case. Besides, the MIC in [7] was 3.13 µM; in data set [8] it was 6.25 µM; in data set [9], 3.13 µM; in [10], 3.13 µM; in data set [12] it was 12.5 µM; in [13], 12.5 µM. The MIC in data set [14] was found to be 12.5 µM; in [16], 3.13 µM; in data set [18] it was 12.5 µM. Further, the Cell viability in data set [11] came out at 72.3%. The same substance returned a hemolytic activity in data set [15] of 49.2%. Moreover, the “MIC in the presence of 150 mM NaCl” value in data set [17] is 6.25 µM.

GILGKLWEGVKSII-NH2 [Hp1404-I]: the MIC in [1] is given as 3.13 µM; in data set [2], 6.25 µM; in [3] it was 3.13 µM; in data set [4] it was 3.13 µM; in data set [5], 3.13 µM; in data set [6], 3.13 µM. The MIC in data set [7] was found to be 3.13 µM; in data set [8], 12.5 µM; in data set [9], 3.13 µM; in data set [10], 6.25 µM; in data set [12] it was 12.5 µM; in data set [13], 25 µM. The values for the MIC in data set [14], in data set [16] and in data set [18] were 25 µM, 3.13 µM and 25 µM, respectively. In addition, the Cell viability in [11] is on record as 100%. The “MIC in the presence of 150 mM NaCl” value in data set [17] stood at 12.5 µM.

Turning to GILGKLWEGVKSIL-NH2 [Hp1404-L], the MIC in [1], in data set [2], in data set [3], in data set [4], in data set [5] and in data set [6] was 3.13 µM each time. Further, the MIC amounted to 3.13 µM in data set [7]; 6.25 µM in data set [8]; 1.56 µM in [9]; 3.13 µM in data set [10]; 12.5 µM in data set [12]; 12.5 µM in data set [13]. Also, the MIC amounted to 12.5 µM in data set [14], 1.56 µM in data set [16] and 12.5 µM in data set [18]. The substance further returned a Cell viability in data set [11] of 62.4%. In addition, in data set [15], the hemolytic activity was 45.8%. Further, the “MIC in the presence of 150 mM NaCl” value in data set [17] is 6.25 µM.

Take GILGKLWEGVKSIV-NH2 [Hp1404-V]: the MIC worked out at 6.25 µM in [1]; 12.5 µM in [2]; 6.25 µM in data set [3]; 6.25 µM in [4]; 6.25 µM in data set [5]; 6.25 µM in [6]. The MIC in [7] was 6.25 µM; in data set [8], 25 µM; in [9], 6.25 µM; in data set [10], 25 µM; in data set [12], 25 µM; in data set [13], greater than 25 µM. Further, the MIC is on record as greater than 25 µM in data set [14], 6.25 µM in data set [16] and 25 µM in data set [18]. The substance further returned a Cell viability in data set [11] of 100%. The hemolytic activity result in data set [15] is reported as “no hemolytic activity”. Further, the “MIC in the presence of 150 mM NaCl” value in [17] came out at 25 µM.

As for GILGKLWEGVKSIW-NH2 [Hp1404-W], the MIC in data set [1], in data set [2], in [3], in data set [4], in data set [5] and in data set [6] was 3.13 µM throughout. The MIC is 3.13 µM in data set [7]; 12.5 µM in data set [8]; 3.13 µM in data set [9]; 6.25 µM in data set [10]; 12.5 µM in data set [12]; 25 µM in data set [13]. In addition, the MIC in data set [14] was 12.5 µM; in data set [16] it was 3.13 µM; in data set [18], 25 µM. The substance also displayed a Cell viability in [11] of 100%. The substance also showed a hemolytic activity in data set [15] of 15.9%. The “MIC in the presence of 150 mM NaCl” value in data set [17] amounted to 6.25 µM.
